Reference: patent publication US20240368120A1 (Terns Pharmaceuticals, Inc., priority 2023, published 2024)

Target: T1, human GLP-1R receptor (Homo sapiens, UniProt P43220)
T1 construct: expressed in transfected cells
Test: GLP-1R low expression cell assay (cAMP TR-FRET, CHO-K1_hGLP-1Rlow_clone10 cells)
Type: cell-based
Details: for EC50: cAMP TR-FRET, 30 min at 25° C.
Procedure, shortened: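 Readout is cAMP TR-FRET after 30 min compound stimulation at 25 °C of a low-GLP-1R-expressing CHO-K1 clone (1,000 cells/well), with 10-point 3-fold serial dilutions. Percent activation versus a control GLP-1 peptide, from duplicates, was Hill-fitted to give EC50.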

[1] = maximum activation relative to control GLP-1 peptide agonist

T1 sequence (P43220 24-463): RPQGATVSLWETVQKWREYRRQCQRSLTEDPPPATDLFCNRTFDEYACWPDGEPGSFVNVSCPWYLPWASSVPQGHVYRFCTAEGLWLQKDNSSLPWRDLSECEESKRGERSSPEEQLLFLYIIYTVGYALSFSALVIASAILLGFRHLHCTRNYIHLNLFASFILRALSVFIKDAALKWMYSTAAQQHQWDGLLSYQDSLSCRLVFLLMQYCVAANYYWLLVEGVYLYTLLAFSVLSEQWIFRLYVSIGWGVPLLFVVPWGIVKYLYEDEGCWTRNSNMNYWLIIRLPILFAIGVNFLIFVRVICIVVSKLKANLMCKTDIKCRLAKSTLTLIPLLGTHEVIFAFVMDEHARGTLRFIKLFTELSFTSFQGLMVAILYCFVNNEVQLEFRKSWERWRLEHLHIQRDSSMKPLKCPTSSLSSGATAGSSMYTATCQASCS

Row | EC50 | Emax [1] | GLP-1R Low Expression Cell Assay Emax (%) [1] | SMILES
1 | 0.1 to 1 µM | > 85% |  | Cn1c(CN2CCC(c3cccc(OCc4ccc(C#N)cc4F)n3)CC2)nc2c(Oc3ccc(F)cc3)cc(C(=O)O)cc21 [Compound 352, 2-((4-(6-((4-Cyano-2-fluorobenzyl)oxy)pyridin-2-yl)piperidin-1-yl)methyl)-4-(4-fluorophenoxy)-1-methyl-1H-benzo[d]imidazole-6-carboxylic acid]
2 | 0.01 to 0.1 µM | > 85% |  | Cn1c(CN2CCC(c3cccnc3OCc3ccc(Cl)cc3F)CC2)nc2c(OC(F)F)cc(C(=O)O)cc21 [Compound 364, 2-((4-(2-((4-Chloro-2-fluorobenzyl)oxy)pyridin-3-yl)piperidin-1-yl)methyl)-4-(difluoromethoxy)-1-methyl-1H-benzo[d]imidazole-6-carboxylic acid]
3 | 0.01 to 0.1 µM | > 85% |  | Cn1c(CN2CCC(c3cccc(OCc4ccc(Cl)cc4F)n3)CC2)nc2c(OC[C@@H]3CCO3)cc(C(=O)O)cc21 [Compound 211, (S)-2-((4-(6-((4-Chloro-2-fluorobenzyl)oxy)pyridin-2-yl)piperidin-1-yl)methyl)-1-methyl-4-(oxetan-2-ylmethoxy)-1H-benzo[d]imidazole-6-carboxylic acid]
4 | 0.01 to 0.1 µM | > 85% |  | CCCOc1cc(C(=O)O)cc2c1nc(CN1CCC(c3cccc(OCc4ccc(C#N)cc4F)n3)CC1)n2C [Compound 319, 2-((4-(6-((4-Cyano-2-fluorobenzyl)oxy)pyridin-2-yl)piperidin-1-yl)methyl)-1-methyl-4-propoxy-1H-benzo[d]imidazole-6-carboxylic acid]
5 | < 0.01 µM | > 85% |  | Cn1c(CN2CCC(c3cccc4c3OC(c3ccc(Cl)cc3F)C=C4)CC2)nc2c(OC(F)F)cc(C(=O)O)cc21 (single isomer, unassigned) [Compound 175]
6 | < 0.01 µM | > 85% |  | COc1cc(C(=O)O)cc2c1nc(CN1CCC(c3cccc(OCc4cc(F)c(Cl)cc4F)n3)CC1)n2C [Compound 272, 2-((4-(6-((4-Chloro-2,5-difluorobenzyl)oxy)pyridin-2-yl)piperidin-1-yl)methyl)-4-methoxy-1-methyl-1H-benzo[d]imidazole-6-carboxylic acid]
7 | 0.1 to 1 µM | 50 to 85% |  | Cn1c(CN2CCC(c3nc(OCc4ccc(Cl)cc4F)ccc3F)CC2)nc2c(OC(F)F)cc(C(=O)O)cc21 [Compound 243, 2-((4-(6-((4-Chloro-2-fluorobenzyl)oxy)-3-fluoropyridin-2-yl)piperidin-1-yl)methyl)-4-(difluoromethoxy)-1-methyl-1H-benzo[d]imidazole-6-carboxylic acid]
8 | > 1 µM | 50 to 85% |  | COc1cc(C(=O)O)cc2c1nc([C@@H](C)N1CCC(c3cccc(OCc4ccc(C#N)cc4F)n3)CC1)n2C [Compound 103, (R)-2-(1-(4-(6-((4-Cyano-2-fluorobenzyl)oxy)pyridin-2-yl)piperidin-1-yl)ethyl)-4-methoxy-1-methyl-1H-benzo[d]imidazole-6-carboxylic acid]
9 | 0.01 to 0.1 µM | > 85% |  | Cn1c(CN2CCC(c3cccc(OCc4ccc(Cl)cc4F)n3)CC2)nc2c(OCC#N)cc(C(=O)O)cc21 [Compound 202]
10 | 0.01 to 0.1 µM | > 85% |  | [2H]C([2H])(C)Oc1cc(C(=O)O)cc2c1nc(CN1CCC(c3cccc(OCc4ccc(Cl)cc4F)c3)CC1)n2C [Compound 284, 2-((4-(3-((4-Chloro-2-fluorobenzyl)oxy)phenyl)piperidin-1-yl)methyl)-4-(ethoxy-1,1-d2)-1-methyl-1H-benzo[d]imidazole-6-carboxylic acid]
11 |  |  | + (Emax is <25%) | N#Cc1ccc(COc2cccc(C3CCN(Cc4nc5ccc(C(=O)O)c(O)c5n4C[C@@H]4CCO4)CC3)n2)c(F)c1 [Compound 172, (S)-2-((4-(6-((4-cyano-2-fluorobenzyl)oxy)pyridin-2-yl)piperidin-1-yl)methyl)-7-hydroxy-1-(oxetan-2-ylmethyl)-1H-benzo[d]imidazole-6-carboxylic acid]
12 | > 1 µM | 50 to 85% |  | COc1c(F)c(C(=O)O)cc2nc(CN3CCC(c4cccc(OCc5ccc(Cl)cc5F)n4)CC3)n(C)c12 [Compound 338, 2-((4-(6-((4-Chloro-2-fluorobenzyl)oxy)pyridin-2-yl)piperidin-1-yl)methyl)-6-fluoro-7-methoxy-1-methyl-1H-benzo[d]imidazole-5-carboxylic acid]
13 | > 1 µM | < 25% |  | O=C(O)c1ccc2nc(CN3CCC(c4cccc(OCc5ccc(Cl)cc5F)n4)CC3)c3c(c2c1)COCC3 [Compound 244, 5-((4-(6-((4-chloro-2-fluorobenzyl)oxy)pyridin-2-yl)piperidin-1-yl)methyl)-3,4-dihydro-1H-pyrano[4,3-c]quinoline-9-carboxylic acid]
14 | > 1 µM | 25 to 50% |  | Cn1c(CN2CCC(c3cc(OCc4ccc(Cl)cc4F)ccc3F)CC2)nc2c(OC(F)F)cc(C(=O)O)cc21 [Compound 167, 2-((4-(5-((4-Chloro-2-fluorobenzyl)oxy)-2-fluorophenyl)piperidin-1-yl)methyl)-4-(difluoromethoxy)-1-methyl-1H-benzo[d]imidazole-6-carboxylic acid]

Further lines, the compound ahead of its results:

Row | SMILES | EC50 | Emax [1] | GLP-1R Low Expression Cell Assay Emax (%) [1]
15 | C[C@]1(c2ccc(Cl)cn2)Oc2cccc(C3CCN(Cc4nc5cc(C(=O)O)c6c(c5n4C[C@@H]4CCO4)OCCO6)CC3)c2O1 [Compound 99, 2-((4-((S)-2-(5-Chloropyridin-2-yl)-2-methylbenzo[d][1,3]dioxol-4-yl)piperidin-1-yl)methyl)-1-(((S)-oxetan-2-yl)methyl)-7,8-dihydro-1H-[1,4]dioxino[2′,3′:3,4]benzo[1,2-d]imidazole-5-carboxylic acid] | > 1 µM | > 85% | 
16 | COc1c(F)c(C(=O)O)cc2nc(CN3CCC(c4cccc(OCc5ccc(C#N)cc5F)n4)CC3)n(C)c12 [Compound 336, 2-((4-(6-((4-Cyano-2-fluorobenzyl)oxy)pyridin-2-yl)piperidin-1-yl)methyl)-6-fluoro-7-methoxy-1-methyl-1H-benzo[d]imidazole-5-carboxylic acid] | > 1 µM | < 25% | 
17 | COc1cc(-c2nnn[nH]2)cc2c1nc(CN1CCC(c3cccc(OCc4ccc(Cl)cc4F)n3)CC1)n2C[C@@H]1CCO1 [Compound 279, (S)-2-((4-(6-((4-Chloro-2-fluorobenzyl)oxy)pyridin-2-yl)piperidin-1-yl)methyl)-4-methoxy-1-(oxetan-2-ylmethyl)-6-(1H-tetrazol-5-yl)-1H-benzo[d]imidazole] | < 0.01 µM | 50 to 85% | 
18 | COc1c(C(=O)O)ccc2c1nc(CN1CCC(c3cccc(OCc4ccc(Cl)cc4F)n3)CC1)n2C [Compound 187, 2-((4-(6-((4-Chloro-2-fluorobenzyl)oxy)pyridin-2-yl)piperidin-1-yl)methyl)-4-methoxy-1-methyl-1H-benzo[d]imidazole-5-carboxylic acid] | > 1 µM | < 25% | 
19 | Cn1c(CN2CCC(c3cccc(OCc4ccc(Cl)cc4F)n3)CC2)nc2c(OC(F)F)cc(-c3nsc(=O)[nH]3)cc21 [Compound 370, 3-(2-((4-(6-((4-Chloro-2-fluorobenzyl)oxy)pyridin-2-yl)piperidin-1-yl)methyl)-4-(difluoromethoxy)-1-methyl-1H-benzo[d]imidazol-6-yl)-1,2,4-thiadiazol-5 (4H)-one] | 0.1 to 1 µM | > 85% | 
20 | Cn1c(CN2CCC(Oc3cccc(Cc4ccc(C#N)cc4F)n3)CC2)nc2c(OC(F)F)cc(C(=O)O)cc21 [Compound 157, 2-((4-((6-(4-Cyano-2-fluorobenzyl)pyridin-2-yl)oxy)piperidin-1-yl)methyl)-4-(difluoromethoxy)-1-methyl-1H-benzo[d]imidazole-6-carboxylic acid] | 0.1 to 1 µM | > 85% | 
21 | Cn1c(CN2CCC(c3cccc(F)c3OCc3ccc(Cl)cc3F)CC2)nc2c(OC(F)F)cc(C(=O)O)cc21 [Compound 140, 2-((4-(2-((4-Chloro-2-fluorobenzyl)oxy)-3-fluorophenyl)piperidin-1-yl)methyl)-4-(difluoromethoxy)-1-methyl-1H-benzo[d]imidazole-6-carboxylic acid] | 0.01 to 0.1 µM | > 85% | 
22 | COc1c(F)c(C(=O)O)cc2c1nc(CN1CCC(c3cccc(OCc4ccc(Cl)cc4F)n3)CC1)n2C [Compound 337, 2-((4-(6-((4-Chloro-2-fluorobenzyl)oxy)pyridin-2-yl)piperidin-1-yl)methyl)-5-fluoro-4-methoxy-1-methyl-1H-benzo[d]imidazole-6-carboxylic acid] | 0.01 to 0.1 µM | > 85% | 
23 | CCOc1cc(C(=O)O)cc2c1nc(CN1CCC(c3cccc4c3O[C@@H](c3ccc(C#N)cc3F)CO4)CC1)n2C [Compound 287, (S)-2-((4-(3-(4-Cyano-2-fluorophenyl)-2,3-dihydrobenzo[b][1,4]dioxin-5-yl)piperidin-1-yl)methyl)-4-ethoxy-1-methyl-1H-benzo[d]imidazole-6-carboxylic acid] | > 1 µM | > 85% | 
24 | Cn1c(CN2CCC(c3cccc(OCc4ccc(Cl)cc4F)n3)CC2)nc2c(OC(F)F)cc(-c3cc(O)no3)cc21 [Compound 316, 5-(2-((4-(6-((4-Chloro-2-fluorobenzyl)oxy)pyridin-2-yl)piperidin-1-yl)methyl)-4-(difluoromethoxy)-1-methyl-1H-benzo[d]imidazol-6-yl) isoxazol-3-ol] | 0.1 to 1 µM | 50 to 85% | 
25 | CCn1c(CN2CCC(c3cccc4c3O[C@@](C)(c3ccc(Cl)cn3)O4)CC2)nc2c(OC(C)C)cc(C(=O)O)cc21 [Compound 88, (S)-2-((4-(2-(5-Chloropyridin-2-yl)-2-methylbenzo[d][1,3]dioxol-4-yl)piperidin-1-yl)methyl)-1-ethyl-4-isopropoxy-1H-benzo[d]imidazole-6-carboxylic acid] | 0.01 to 0.1 µM | > 85% | 
26 | CC(Oc1ccccc1C1CCN(Cc2nc3c(OC(F)F)cc(C(=O)O)cc3n2C)CC1)c1ccc(C#N)cc1F (single isomer, unassigned) [Compound 174] | > 1 µM | < 25% | 
